{
  "source": "patent US20080033026A1",
  "about": "“Antimicrobial compositions, methods and systems” (priority 2006, published 2008)",
  "type_in_all_cases": "cell-based",
  "key": {"all organisms": {"test_system": "all organisms", "test": "Time kill test, all organisms of Example 2", "conditions": "even after 10 minutes, all concentrations (0.01, 0.05 and 0.1%)", "description": "The assessment of efficacy of 9-decenoic acid against a spectrum of microorganisms was determined using the American Society for Testing and Materials (ASTM) procedure entitled “Standard Test Method for the Assessment of Microbiocidal Activity of Test Materials Using a Time-Kill Procedure,” October 1998. This procedure incorporates the recommendations described in the “Manual of Clinical Microbiology,” 5th ed., edited by A. B. Balows et al., ASM, Washington, and is directed by the Federal Register, June 1994.\nChallenge organisms were prepared as follows. Cultures of the following organisms were obtained: Staphylococcus aureus (ATCC 6538), Pseudomonas aeruginosa (ATCC 15442), Staphylococcus epidermidis (ATCC 12228), Klebsiella pneumoniae (ATCC 4352), Escherichia coli 0157:H7 (ATCC 43895) and Candida albicans (ATCC 10231). The stock cultures were transferred to sterile tubes and sterile tryptic soy broth (TSB) was added to the cultures. […]\nConcentrated 9-decenoic acid (97%) was diluted in filter sterilized isopropanol to yield a 25,000 ppm stock solution. […] The pH was determined for each dilution; pH values ranged from 4.4-4.1. […]\nAt each exposure sample time, a 1.0 ml aliquot of the inoculated 9-decenoic acid suspension was transferred to 9.0 ml of D/E Neutralizing Broth. […] The plates were enumerated, recorded and log kill determined for each time point. […]"}, "[1]": {"test_system": "Staphylococcus epidermidis (ATCC 12228)", "test": "MIC and MBC determination (broth dilution)", "conditions": "subculture on TSA", "description": "(§1) The determination of the MIC and MBC of 9-decenoic acid conformed to the procedure printed in the Federal Register, June 1994 and the present NCCLS M11-A4 protocol. Challenge organisms were prepared as follows. The MIC and MBC of 9-decenoic acid and the methyl ester of 9-decenoic acid were determined for the following challenge organisms: Staphylococcus aureus (ATCC 6538), Pseudomonas aeruginosa (ATCC 15442), Staphylococcus epidermidis (ATCC 12228), Klebsiella pneumoniae (ATCC 4352), Escherichia coli 0157:H7 (ATCC 43895) and Candida albicans (ATCC 10231). Stock cultures of each organism were transferred onto suitable culture media, Mueller-Hinton Agar (MHA) plates, and incubated for 24 hours (+2 hours) at 37° C. (+2° C.). On the day of the test, the top of at least three to five well-isolated colonies were transferred via wire loop to a tube containing 4 to 5 ml of Trypticase Soy Broth (TSB). The TSB culture was incubated for 2 to 6 hours and turbidity was adjusted with sterile saline to achieve the turbidity of a McFarland 0.5 Standard.\n(§2) The concentrated 9-decenoic acid (97%) was diluted in Mueller-Hinton Broth (MHB) to yield a 25,000 ppm stock solution of the 9-decenoic acid. For each organism, 12 dilutions of the 9-decenoic acid in MHB were prepared ranging from 0.25% to 0.00049%. The test solution of the methyl ester of 9-decenoic acid was formulated in the same manner.\n(§3) A 2-ml aliquot of appropriately diluted 9-decenoic acid solution or methyl ester of 9-decenoic acid was placed in each tube. Each tube was inoculated with 0.05 ml of a 1:10 dilution of one challenge organism. Tubes were incubated at 37° C. (±2° C.) for 20-24 hours and observed for microbial growth visually and by spectrophotometer. […] (±2° C.) for 20-24 hours and visually observed for growth.\n(§4) Controls were run for sterility, viability and organism confirmation. It was determined that all cultures were viable and pure.\n(§5) The MBC was defined as the concentration of 9-decenoic acid or the methyl ester of 9-decenoic acid that completely eradicated viable organisms from the test system."}, "[2]": {"test_system": "Pseudomonas aeruginosa (ATCC 15442)", "test": "MIC and MBC determination (broth dilution)", "conditions": "Mueller-Hinton Broth, 20-24 h, 37° C.", "description": "as §1, §2, §3, §4, §5"}, "[3]": {"test_system": "Escherichia coli 0157:H7 (ATCC 43895)", "test": "MIC and MBC determination (broth dilution)", "description": "as §1, §2, §3, §4, §5"}, "[4]": {"test_system": "Candida albicans (ATCC 10231)", "test": "MIC and MBC determination (broth dilution)", "description": "as §1, §2, §3, §4, §5"}, "[5]": {"test_system": "Klebsiella pneumoniae (ATCC 4352)", "test": "MIC and MBC determination (broth dilution)", "conditions": "Mueller-Hinton Broth, 20-24 h, 37° C.", "description": "as §1, §2, §3, §4, §5"}, "[6]": {"conditions": "Mueller-Hinton Broth, 20-24 h, 37° C."}},
  "data": [
    {"smiles": "C=CCCCCCCCC(=O)OC", "note": "[Methyl ester of 9-decenoic acid, methyl ester of 9-decenoic acid]", "values": [
      {"measurement": "log reduction", "setting": "all organisms", "result": "< 1", "unit": "log"},
      {"measurement": "MBC", "setting": "[1]", "result": 0.25, "unit": "%"},
      {"measurement": "MIC", "setting": "[2]", "result": 0.0625, "unit": "%"},
      {"measurement": "MIC", "setting": "[3]; [6]", "result": 0.125, "unit": "%"},
      {"measurement": "MBC", "setting": "[3]; subculture on TSA", "result": 0.125, "unit": "%"},
      {"measurement": "MIC", "setting": "[4]; [6]", "result": 0.0156, "unit": "%"},
      {"measurement": "MBC", "setting": "[4]; subculture on TSA", "result": 0.0156, "unit": "%"},
      {"measurement": "MIC", "setting": "[5]", "result": 0.0625, "unit": "%"}
    ]}
  ]
}
